Where a SMILES comes first, the peptide text is derived from it. [ ]: non-standard residue; d: D form. Arg(Me) = CNC(=N)NCCC[C@H](N)C(=O)O; Hyp = O=C(O)[C@@H]1C[C@@H](O)CN1; azaGly = NNC(=O)O
Assays:
rat KISS1R = molecular target: T1, rat KISS1R (Rattus norvegicus, UniProt Q924U1); assay: Intracellular Ca2+ mobilization (fluorometric imaging plate reader), rat KISS1R; assay type: cell-based
T1 construct: expressed in transfected cells; host or cells: Chinese hamster ovary dihydrofolate reductase negative cells
T1 sequence (Q924U1 whole entry): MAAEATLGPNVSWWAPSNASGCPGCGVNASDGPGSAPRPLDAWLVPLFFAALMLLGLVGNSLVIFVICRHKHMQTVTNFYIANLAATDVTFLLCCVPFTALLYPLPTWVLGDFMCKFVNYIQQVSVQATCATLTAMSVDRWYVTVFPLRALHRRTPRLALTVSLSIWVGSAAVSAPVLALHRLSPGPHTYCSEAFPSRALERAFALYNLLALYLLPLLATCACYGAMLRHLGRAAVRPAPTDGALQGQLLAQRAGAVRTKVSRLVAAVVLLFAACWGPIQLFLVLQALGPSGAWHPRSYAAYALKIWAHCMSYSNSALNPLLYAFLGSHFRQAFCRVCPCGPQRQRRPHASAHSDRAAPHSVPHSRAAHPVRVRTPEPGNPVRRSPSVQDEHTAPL
Procedure: The effects of API-MA on intracellular Ca^2+ mobilization in KISS1R-expressing recombinant cells were evaluated by performing the fluorometric imaging plate reader assay.

human KISS1R = human KISS1R (Homo sapiens, UniProt Q969F8); assay: Competitive binding assay, human KISS1R; set-up: expressed in transfected cells
Chain of human KISS1R (Q969F8 whole entry): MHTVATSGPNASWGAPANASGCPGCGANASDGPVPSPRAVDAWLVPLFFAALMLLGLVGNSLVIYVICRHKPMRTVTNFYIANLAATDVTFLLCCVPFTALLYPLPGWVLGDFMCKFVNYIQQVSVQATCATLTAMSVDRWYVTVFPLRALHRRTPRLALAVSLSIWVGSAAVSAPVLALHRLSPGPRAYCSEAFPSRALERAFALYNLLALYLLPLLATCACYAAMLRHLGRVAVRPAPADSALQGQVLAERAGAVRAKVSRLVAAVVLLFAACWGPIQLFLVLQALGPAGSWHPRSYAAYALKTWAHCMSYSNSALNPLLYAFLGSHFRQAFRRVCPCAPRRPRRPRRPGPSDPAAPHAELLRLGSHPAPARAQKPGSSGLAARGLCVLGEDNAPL
From the text: The binding affinity of API-MA to membrane fractions of KISS1R-expressing recombinant cells was examined in a competitive binding assay.

CYP3A4 = CYP3A4 (Homo sapiens, UniProt P08684); assay: Inhibition of recombinant CYP3A4; assay type: in vitro ADME
Chain of CYP3A4 (P08684 whole entry): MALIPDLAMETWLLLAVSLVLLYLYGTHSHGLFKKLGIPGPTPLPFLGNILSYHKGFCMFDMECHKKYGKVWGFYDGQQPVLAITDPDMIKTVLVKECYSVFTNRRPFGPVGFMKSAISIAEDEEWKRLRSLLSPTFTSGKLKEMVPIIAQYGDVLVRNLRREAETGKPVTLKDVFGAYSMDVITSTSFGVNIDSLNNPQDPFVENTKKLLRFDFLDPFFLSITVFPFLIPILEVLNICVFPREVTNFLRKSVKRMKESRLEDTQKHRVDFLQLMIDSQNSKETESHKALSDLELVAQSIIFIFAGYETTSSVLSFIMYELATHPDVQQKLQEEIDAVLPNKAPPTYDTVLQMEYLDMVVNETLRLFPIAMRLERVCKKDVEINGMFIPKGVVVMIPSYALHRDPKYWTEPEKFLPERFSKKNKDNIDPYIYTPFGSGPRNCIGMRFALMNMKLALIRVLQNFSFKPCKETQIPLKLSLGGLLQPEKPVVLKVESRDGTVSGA

in vitro = in vitro ADME, rats, dogs, monkeys, humans; conditions: rat, dog, monkey, human, plasma
Procedure: The in vitro distribution ratios of [^14C]API-MA into the blood cells at the concentrations of 0.01, 0.1, 1, and 10 μg/mL API-FB (free form) were 7.8%, 8.0%, 7.1%, and 4.8% for rats, 2.4%, 2.0%, 1.6%, and 1.2% for dogs, and 2.0%, 0.0%, 0.0%, and 0.5% for humans, respectively. […] The in vitro plasma protein binding ratios of [^14C]API-FB in rats, dogs, monkeys, and humans were determined by the ultracentrifugation method. In addition, the protein binding to human serum albumin (HSA), α1-acid glycoprotein (AGP), and HSA/AGP was investigated. […] In rats and dogs, a slight decrease in the binding ratio at the concentration range between 0.1 and 1.0 μg/mL API-FB was observed. In monkeys and humans, the binding was independent of the drug concentrations from 0.01 to 10 μg/mL API-FB.

CC(=O)O.CNC(=N)NCCC[C@H](NC(=O)[C@H](CC(C)C)NC(=O)NNC(=O)[C@H](Cc1ccccc1)NC(=O)[C@@H](NC(=O)[C@H](CC(N)=O)NC(=O)[C@@H]1C[C@@H](O)CN1C(=O)[C@@H](Cc1ccc(O)cc1)NC(C)=O)[C@@H](C)O)C(=O)N[C@@H](Cc1c[nH]c2ccccc12)C(N)=O [API-MA, 2-(N-Acetyl-D-tyrosyl-trans-4-hydroxy-L-prolyl-Lasparaginyl-L-threonyl-L-phenylalanyl)-hydrazinocarbonyl-L-leucyl-Nω-methyl-L-arginyl-L-tryptophanamide monoacetate] (Ac-[dY][Hyp]NTF[azaGly]L[Arg(Me)]W-NH2)
EC50 (rat KISS1R): 0.632 nM
Ratio of EC50 of API-MA to kisspeptin (45-54) (rat KISS1R; rat KISS1R): 2.0
IC50 (human KISS1R): 0.23 nM
IC50 (CYP3A4): > 7.78 nM

CNC(=N)NCCC[C@H](NC(=O)[C@H](CC(C)C)NC(=O)NNC(=O)[C@H](Cc1ccccc1)NC(=O)[C@@H](NC(=O)[C@H](CC(N)=O)NC(=O)[C@@H]1C[C@@H](O)CN1C(=O)[C@@H](Cc1ccc(O)cc1)NC(C)=O)[C@@H](C)O)C(=O)N[C@@H](Cc1c[nH]c2ccccc12)C(N)=O [Compound 1, 2-(N-Acetyl-D-tyrosyl-trans-4-hydroxy-L-prolyl-L-asparaginyl-L-threonyl-L-phenylalanyl)-hydrazinocarbonyl-L-leucyl-Nω-methyl-L-arginyl-L-tryptophanamide] (Ac-[dY][Hyp]NTF[azaGly]L[Arg(Me)]W-NH2)
fraction unbound (in vitro): 0.267 to 0.447

— US11013780B2, “Methods of treating female infertility” (Myovant Sciences GmbH, priority 2016, dated 2021)
